Consider 8 compounds from USRE47193E1, “Selectively substituted quinoline compounds” (EISAI R&D MANAGEMENT CO., LTD., priority 2013, dated 2019).

The structures appear in SMILES notation.

The target of assay [1] is T1, mouse TLR7 (Mus musculus, UniProt P58681).
T1 sequence (P58681 27-1050): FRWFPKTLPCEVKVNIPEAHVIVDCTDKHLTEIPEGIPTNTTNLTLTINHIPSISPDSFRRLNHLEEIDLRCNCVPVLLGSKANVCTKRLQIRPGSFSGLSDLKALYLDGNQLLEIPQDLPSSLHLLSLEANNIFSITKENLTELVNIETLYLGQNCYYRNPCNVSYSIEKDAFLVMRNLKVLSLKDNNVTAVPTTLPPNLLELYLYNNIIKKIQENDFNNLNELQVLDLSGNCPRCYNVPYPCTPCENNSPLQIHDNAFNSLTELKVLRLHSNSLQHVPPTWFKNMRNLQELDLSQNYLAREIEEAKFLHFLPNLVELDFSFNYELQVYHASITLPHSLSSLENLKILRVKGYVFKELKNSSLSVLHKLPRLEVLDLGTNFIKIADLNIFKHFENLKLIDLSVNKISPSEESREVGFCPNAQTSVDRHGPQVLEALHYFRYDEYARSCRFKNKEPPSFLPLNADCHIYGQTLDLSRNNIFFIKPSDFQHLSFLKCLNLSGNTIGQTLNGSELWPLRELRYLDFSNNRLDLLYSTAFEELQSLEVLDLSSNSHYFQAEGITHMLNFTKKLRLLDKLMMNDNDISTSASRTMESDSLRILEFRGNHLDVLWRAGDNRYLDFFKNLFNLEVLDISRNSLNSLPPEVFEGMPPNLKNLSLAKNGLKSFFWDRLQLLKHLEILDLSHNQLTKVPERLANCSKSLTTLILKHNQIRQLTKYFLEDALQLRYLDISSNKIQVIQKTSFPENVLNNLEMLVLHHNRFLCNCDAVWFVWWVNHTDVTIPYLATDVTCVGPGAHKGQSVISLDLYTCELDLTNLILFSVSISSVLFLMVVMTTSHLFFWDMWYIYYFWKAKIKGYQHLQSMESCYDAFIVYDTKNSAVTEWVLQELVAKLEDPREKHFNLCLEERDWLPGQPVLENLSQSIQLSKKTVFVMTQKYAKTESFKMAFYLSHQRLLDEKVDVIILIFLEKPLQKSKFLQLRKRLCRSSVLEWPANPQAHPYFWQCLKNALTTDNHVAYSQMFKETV
Put plainly: Short-term in vivo (STIV) assay: oral dosing, R848 s.c., plasma IL-6. The arrangement: female BALB/c mice (Jackson Labs, Bar Harbor, Me.) were dosed by oral gavage; tissue Jackson Labs; host or cells: living female BALB/c mice; plasma IL-6 after s.c. R848. In outline:
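Female BALB/c mice (6–8 weeks) dosed orally with compound in 0.5% aqueous methyl-cellulose at 33, 100 or 300 mg/kg; at various times afterwards given 15 ug R848 s.c. to stimulate TLR7. Plasma IL-6 measured by ELISA to gauge potency and duration of action.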

In assay [2] the test system is Mouse Splenocytes. Put plainly: Mouse spleen cell-based assay (R848, IL-6 ELISA). Conditions: BALB/c spleen cells, 370 nM R848. How it is done: Mouse Spleen cell-based assay. Spleens were harvested from female BALB/c mice (Jackson Labs, Bar Harbor, Me.) euthanized by CO2. A single cell suspension was obtained by passing spleens through a 40 μm an nylon cell strainer. Cells were washed twice with 50 ml PBS (Mediatech, Inc., Manassas, Va.) and red blood cells were lysed in 5 ml RBC Lysis buffer (eBioscience, Inc., San Diego, Calif.) for 5 minutes at room temperature. Cells were washed twice more in PBS and finally resuspended in supplemented RPMI-1640 at 2.5×10^6 cells/ml. Cells were plated at 100 μl/well (2.5×10^5 cells/well) in 96-well tissue culture treated plates (Falcon). Serial dilutions of compounds solubilized in 100% DMSO were added in triplicate to cells to yield a final concentration of 0.1% DMSO. Cells were incubated with compound for 30 minutes at 37° C., 5% CO2 before adding 100 μl/well of 740 nM R848 (Resiquimod; GLSynthesis, Worcester, Mass.) in complete media for a final concentration of 370 nM R848. Cells were incubated for 20 hours at 37° C., 5% CO2. Culture supernatants were collected, and levels of IL-6 were assessed by standard ELISA procedure according to the manufacturer's recommended protocol (BD Biosciences, Inc., San Diego, Calif.).
A general note: ELISA stands for enzyme-linked immunosorbent assay.

In assay [3] the test system is Human TLR7/8. The assay can be described thus: Human PBMC cell-based assay, TLR7/8 stimulus (RNA-Ig), cytokine ELISA. To be noted: primary human PBMC assay, TLR7/8 potency; ligand not given; read-out: Human PBMCs IC50. An outline of the steps:
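Healthy-donor human PBMC, 2×10^5 cells/well (1×10^5 in later assay), pre-treated 30 min with compound (0.1% DMSO). Stimulated 20 h at 37 °C with RNA-Ig: 26-mer U1 snRNA stem loop IV phosphorothioate RNA at 2.5 μM plus anti-ssDNA antibody (1:25 or 1 ug/ml). Supernatant cytokines by ELISA.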

Regarding `C[C@@H]1CN(c2ccc(C#N)c3ncccc23)C[C@H](CN2CC[C@H](N3CCCC3)C2)O1` [ER-893881], the “% Suppression vs. Vehicle” value in assay [1] (3 h, 33 mg/kg) was 95%; in assay [1] (6 h, 33 mg/kg) it was 82%; in assay [1] (6 h, 100 mg/kg) it was 99%; in assay [1] (13 h, 33 mg/kg), 0%; in assay [1] (13 h, 100 mg/kg) it was 19%. For the same compound, the IC50 – broadly, the concentration at which inhibition is half-maximal – came to 0.27 µM in assay [2] (Mus musculus, Splenocyte) and 0.009 µM in assay [3].

`CC1CN(c2ccc(C#N)c3ncccc23)CC(CN2CCC(N3CCOCC3)CC2)O1` (stereo not shown) [ER-890093]: the “% Suppression vs. Vehicle” value in assay [1] (3 h, 100 mg/kg) is given as 92%; in assay [1] (6 h, 33 mg/kg), 92%; in assay [1] (6 h, 100 mg/kg), 95%; in assay [1] (13 h, 33 mg/kg), 98%; in assay [1] (13 h, 100 mg/kg), 100%. Besides, the IC50 in assay [2] (Mus musculus, Splenocyte) came to 0.088 µM; in assay [3], 0.022 µM.

In the case of `CCNC(=O)C1CCN(CC2CN(c3ccc(C#N)c4ncccc34)CC(C)O2)CC1` (stereo not shown) [ER-895204], the “% Suppression vs. Vehicle” value is 98% in assay [1] (6 h, 33 mg/kg); 22% in assay [1] (13 h, 33 mg/kg); 43% in assay [1] (13 h, 100 mg/kg); 99% in assay [1] (13 h, 300 mg/kg); 39% in assay [1] (24 h, 33 mg/kg); 39% in assay [1] (24 h, 100 mg/kg). The “% Suppression vs. Vehicle” value in assay [1] (24 h, 300 mg/kg) is listed as 78%. The IC50 in assay [2] (Mus musculus, Splenocyte) stood at 0.051 µM; in assay [3], 0.023 µM.

`C[C@@H]1CN(c2ccc(C#N)c3ncccc23)C[C@H](CN2CCC(N3CCCC3)CC2)O1` [ER-888480]: the “% Suppression vs. Vehicle” value is given as 85% in assay [1] (6 h, 11 mg/kg); 100% in assay [1] (6 h, 33 mg/kg); 100% in assay [1] (6 h, 100 mg/kg); 63% in assay [1] (19 h, 11 mg/kg); 89% in assay [1] (19 h, 33 mg/kg); 98% in assay [1] (19 h, 100 mg/kg). Further, the figures for the IC50 in assay [2] and in assay [3] were 0.087 µM and 0.001 µM, respectively.

For `C[C@@H]1CN(c2ccc(C#N)c3ncccc23)C[C@H](CN2CCC(N)CC2)O1` [ER-888070], the “% Suppression vs. Vehicle” value in assay [1] (6 h, 33 mg/kg) is 88%; in assay [1] (6 h, 100 mg/kg), 100%; in assay [1] (6 h, 300 mg/kg) it was 100%; in assay [1] (19 h, 33 mg/kg), 70%; in assay [1] (19 h, 100 mg/kg), 90%; in assay [1] (19 h, 300 mg/kg), 99%. The IC50 in assay [2] (Mus musculus, Splenocyte) is 0.076 µM; in assay [3], 0.003 µM.

As to `CC1CN(c2ccc(C#N)c3ncccc23)CC(CN2CCNCC2C)O1` (stereo not shown) [ER-887268], the “% Suppression vs. Vehicle” value in assay [1] (6 h, 11 mg/kg) worked out at 80%; in assay [1] (6 h, 33 mg/kg), 98%; in assay [1] (6 h, 100 mg/kg), 99%; in assay [1] (19 h, 11 mg/kg), 25%; in assay [1] (19 h, 33 mg/kg) it was 63%; in assay [1] (19 h, 100 mg/kg), 95%. Further, the half-maximal inhibitory concentration (IC50) in assay [2] (Mus musculus, Splenocyte) came to 2.12 µM; in assay [3], 0.005 µM.

`CC1CN(c2ccc(C#N)c3ncccc23)CC(CN2CC(N3CCCC3)C2)O1` (stereo not shown) [ER-889469]: the “% Suppression vs. Vehicle” value is 100% in assay [1] (3 h, 33 mg/kg); 100% in assay [1] (3 h, 100 mg/kg); 100% in assay [1] (6 h, 33 mg/kg); 100% in assay [1] (6 h, 100 mg/kg); 73% in assay [1] (19 h, 100 mg/kg). Further, the IC50 in assay [2] (Mus musculus, Splenocyte) turned out to be 0.097 µM; in assay [3] it was 0.013 µM.

As to `CC1CN(c2ccc(C#N)c3ncccc23)CC(CN2CC(N3CCCCC3)C2)O1` (stereo not shown) [ER-889470], the “% Suppression vs. Vehicle” value in assay [1] (3 h, 33 mg/kg) stood at 100%; in assay [1] (3 h, 100 mg/kg), 98%; in assay [1] (6 h, 33 mg/kg), 96%; in assay [1] (6 h, 100 mg/kg), 100%; in assay [1] (19 h, 100 mg/kg), 78%. The IC50 was found to be 0.152 µM in assay [2] (Mus musculus, Splenocyte) and 0.012 µM in assay [3].
